# Test results: patent US7553841B2, “Amino cyclobutylamide modulators of chemokine receptor activity” (Merck & Co., Inc., priority 2003, dated 2009)
# Test system: chemokine receptor
# Experiment: activity of separated cis/trans isomers (test not described)
# Conditions: cis versus trans isomer of the same example, separated by chromatography; values not given
row,SMILES,relative activity of the separated isomers
1,CC(O)[C@]1(C(=O)NCc2cncc(C(F)(F)F)c2)C[C@@H](N2CC[C@@]3(C=Cc4ccccc43)[C@@H](C)C2)C1 (mixture of isomers) [Example 122 cis isomer],more active isomer
2,C[C@H]1CN(C2CC(C(=O)NCc3cc(C(F)(F)F)cc(C(F)(F)F)c3)C2)CC[C@@]12C=Cc1ccccc12 (stereo partly drawn) [Example 1 cis isomer],more active isomer
3,CN(C1CCOCC1)C1CC(C(=O)NCc2cc(C(F)(F)F)cc(C(F)(F)F)c2)(c2ccccc2)C1 (stereo not drawn) [Example 41 cis isomer],more active isomer
4,CN(C1CCOCC1)C1CC(C(=O)NCc2cc(F)cc(C(F)(F)F)c2)(c2ccccc2)C1 (stereo not drawn) [Example 42 trans isomer],active isomer
5,C[C@H]1CN(C2CC(CNC(=O)c3cc(C(F)(F)F)cc(C(F)(F)F)c3)(c3ccccc3)C2)CC[C@@]12C=Cc1ccccc12 (stereo partly drawn) [Example 43 cis isomer],active isomer
6,C[C@H]1CN(C2CC(C)(C(=O)NCc3cc(C(F)(F)F)cc(C(F)(F)F)c3)C2)CC[C@@]12C=Cc1ccccc12 (stereo partly drawn) [Example 54 cis isomer],more active isomer
